Experimental data from ChEMBL document CHEMBL3526047, “Excretion, metabolism, and pharmacokinetics of 1-(8-(2-chlorophenyl)-9-(4-chlorophenyl)-9H-purin-6-yl)-4-(ethylamino)piperidine-4-carboxamide, a selective cannabinoid receptor antagonist, in healthy male volunteers” (Drug Metab Dispos, 2012).

Assays:
Serum [1] = assay: Total drug level in healthy obese adult male human serum at 25 mg, po administered as single dose after 48 hrs by HPLC method; format: ADME, organism-based; conditions: in vivo
Rattus norvegicus = organism: Rattus norvegicus; assay: Drug recovery in rat; format: ADME, organism-based; conditions: in vivo
Mus musculus = organism: Mus musculus; assay: Drug recovery in mouse; format: ADME, organism-based; conditions: in vivo
Canis familiaris = organism: Canis familiaris; assay: Drug recovery in dog; format: ADME, organism-based, Canis lupus familiaris; conditions: in vivo
Serum [2] = assay: Drug level in healthy obese adult male human serum at 25 mg, po administered as single dose after 4 hrs by HPLC method; format: ADME, organism-based; conditions: in vivo
Serum [3] = assay: Drug level in healthy obese adult male human serum at 25 mg, po administered as single dose after 12 hrs by HPLC method; format: ADME, organism-based; conditions: in vivo
Homo sapiens [4] = assay: AUC (0 to infinity) in healthy obese adult male human assessed as total radioactivity at 25 mg, po administered as single dose; format: ADME, organism-based, Plasma; parameters: dose 25 mg, time infinity, route oral; conditions: in vivo
Homo sapiens [5] = assay: Terminal elimination half life in healthy obese adult male human assessed as total radioactivity at 25 mg, po administered as single dose; format: ADME, organism-based; conditions: in vivo
Serum [6] = assay: Drug level in healthy obese adult male human serum at 25 mg, po administered as single dose after 24 hrs by HPLC method; format: ADME, organism-based; conditions: in vivo
Serum [7] = assay: Drug level in healthy obese adult male human serum at 25 mg, po administered as single dose after 48 hrs by HPLC method; format: ADME, organism-based; conditions: in vivo
Serum [8] = assay: AUC in healthy obese adult male human serum at 25 mg, po administered as single dose after 48 hrs by HPLC method; format: ADME, organism-based, Plasma; parameters: time < 48 hr, dose 25 mg, route oral; conditions: in vivo
Cytochrome P450 1A1 = target: T1, Cytochrome P450 1A1 (Homo sapiens, UniProt P04798); assay: Drug metabolism assessed as human recombinant CYP1A1-mediated metabolite formation at 10 uM after 60 mins by HPLC method; format: ADME; conditions: recombinant enzyme, 1 h
T1 sequence (P04798 whole entry): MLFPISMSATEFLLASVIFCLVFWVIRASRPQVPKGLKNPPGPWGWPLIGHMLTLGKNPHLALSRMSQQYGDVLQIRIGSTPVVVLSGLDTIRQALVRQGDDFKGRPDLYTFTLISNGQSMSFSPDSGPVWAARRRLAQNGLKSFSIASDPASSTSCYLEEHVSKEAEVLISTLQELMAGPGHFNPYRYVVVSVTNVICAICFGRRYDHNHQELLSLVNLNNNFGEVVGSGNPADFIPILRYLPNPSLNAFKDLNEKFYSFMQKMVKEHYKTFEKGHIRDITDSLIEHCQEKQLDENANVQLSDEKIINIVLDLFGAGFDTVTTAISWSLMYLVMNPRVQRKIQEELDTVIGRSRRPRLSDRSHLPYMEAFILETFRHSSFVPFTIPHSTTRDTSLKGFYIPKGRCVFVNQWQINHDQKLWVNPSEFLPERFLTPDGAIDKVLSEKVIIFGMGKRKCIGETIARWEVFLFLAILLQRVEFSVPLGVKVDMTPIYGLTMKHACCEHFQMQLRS

Cytochrome P450 1A2 = target: T2, Cytochrome P450 1A2 (Homo sapiens, UniProt P05177); assay: Drug metabolism assessed as human recombinant CYP1A2-mediated metabolite formation at 10 uM after 60 mins by HPLC method; format: ADME; conditions: recombinant enzyme, 1 h
T2 sequence (P05177 whole entry): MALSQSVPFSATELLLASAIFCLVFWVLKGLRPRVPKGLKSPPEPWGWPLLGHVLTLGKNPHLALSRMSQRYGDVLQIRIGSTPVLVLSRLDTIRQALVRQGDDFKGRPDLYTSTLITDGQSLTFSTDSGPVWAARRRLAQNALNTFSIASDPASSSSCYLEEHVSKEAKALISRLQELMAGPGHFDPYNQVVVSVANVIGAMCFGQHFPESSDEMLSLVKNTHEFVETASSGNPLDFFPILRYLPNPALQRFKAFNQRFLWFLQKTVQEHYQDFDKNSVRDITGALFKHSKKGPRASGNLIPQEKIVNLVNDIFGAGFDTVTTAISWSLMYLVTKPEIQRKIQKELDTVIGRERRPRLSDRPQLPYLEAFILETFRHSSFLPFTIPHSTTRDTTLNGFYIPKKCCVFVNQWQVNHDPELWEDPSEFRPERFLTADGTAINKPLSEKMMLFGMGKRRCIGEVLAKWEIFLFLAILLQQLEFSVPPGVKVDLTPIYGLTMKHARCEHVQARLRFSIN

Cytochrome P450 2C8 = target: T3, Cytochrome P450 2C8 (Homo sapiens, UniProt P10632); assay: Drug metabolism assessed as human recombinant CYP2C8-mediated metabolite formation at 10 uM after 60 mins by HPLC method; format: ADME; conditions: recombinant enzyme, 1 h
T3 sequence (P10632 whole entry): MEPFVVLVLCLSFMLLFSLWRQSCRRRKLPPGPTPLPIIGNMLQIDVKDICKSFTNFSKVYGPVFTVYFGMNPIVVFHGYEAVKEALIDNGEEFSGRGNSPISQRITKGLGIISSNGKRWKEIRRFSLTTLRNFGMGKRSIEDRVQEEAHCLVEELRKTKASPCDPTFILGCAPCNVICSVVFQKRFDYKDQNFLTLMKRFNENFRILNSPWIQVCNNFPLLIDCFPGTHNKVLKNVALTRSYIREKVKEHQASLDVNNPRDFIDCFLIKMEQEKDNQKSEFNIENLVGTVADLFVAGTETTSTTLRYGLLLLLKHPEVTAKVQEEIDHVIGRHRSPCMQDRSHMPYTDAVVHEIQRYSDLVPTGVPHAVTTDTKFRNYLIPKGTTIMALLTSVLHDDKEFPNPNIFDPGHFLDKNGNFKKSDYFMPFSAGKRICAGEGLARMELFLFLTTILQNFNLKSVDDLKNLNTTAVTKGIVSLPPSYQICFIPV

Cytochrome P450 2C9 = Cytochrome P450 2C9 (Homo sapiens, UniProt P11712); assay: Drug metabolism assessed as human recombinant CYP2C9-mediated metabolite formation at 10 uM after 60 mins by HPLC method; format: ADME; conditions: recombinant enzyme, 1 h
Cytochrome P450 2C9, sequence (P11712 whole entry): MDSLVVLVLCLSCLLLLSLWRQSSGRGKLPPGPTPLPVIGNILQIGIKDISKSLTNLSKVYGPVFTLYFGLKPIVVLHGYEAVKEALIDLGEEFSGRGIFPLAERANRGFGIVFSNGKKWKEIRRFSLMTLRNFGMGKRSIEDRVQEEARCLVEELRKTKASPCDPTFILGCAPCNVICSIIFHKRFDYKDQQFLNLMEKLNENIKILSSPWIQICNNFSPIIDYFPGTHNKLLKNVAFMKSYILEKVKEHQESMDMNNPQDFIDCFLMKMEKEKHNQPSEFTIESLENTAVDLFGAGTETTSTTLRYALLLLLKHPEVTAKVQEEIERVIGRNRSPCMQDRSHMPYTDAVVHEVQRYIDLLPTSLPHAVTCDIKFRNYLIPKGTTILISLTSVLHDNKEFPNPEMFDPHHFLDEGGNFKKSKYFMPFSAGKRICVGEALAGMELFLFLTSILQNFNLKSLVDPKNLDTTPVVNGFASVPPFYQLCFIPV

Cytochrome P450 2C19 = Cytochrome P450 2C19 (Homo sapiens, UniProt P33261); assay: Drug metabolism assessed as human recombinant CYP2C19-mediated metabolite formation at 10 uM after 60 mins by HPLC method; format: ADME; conditions: recombinant enzyme, 1 h
Cytochrome P450 2C19, sequence (P33261 whole entry): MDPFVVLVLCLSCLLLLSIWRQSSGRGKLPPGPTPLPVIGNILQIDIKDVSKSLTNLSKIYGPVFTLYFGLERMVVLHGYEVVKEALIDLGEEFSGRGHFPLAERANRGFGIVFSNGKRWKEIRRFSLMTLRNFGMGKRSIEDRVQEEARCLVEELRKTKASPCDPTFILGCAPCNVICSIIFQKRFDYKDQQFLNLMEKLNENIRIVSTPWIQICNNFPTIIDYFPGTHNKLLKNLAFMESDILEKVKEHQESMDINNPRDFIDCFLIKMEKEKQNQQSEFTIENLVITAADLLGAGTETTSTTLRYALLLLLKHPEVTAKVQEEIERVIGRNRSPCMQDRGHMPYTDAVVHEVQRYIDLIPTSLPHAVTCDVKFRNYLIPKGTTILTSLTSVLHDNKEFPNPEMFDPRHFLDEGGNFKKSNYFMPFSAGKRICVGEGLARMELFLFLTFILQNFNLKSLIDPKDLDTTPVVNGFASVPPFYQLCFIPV

Cytochrome P450 2D6 = Cytochrome P450 2D6 (Homo sapiens, UniProt P10635); assay: Drug metabolism assessed as human recombinant CYP2D6-mediated metabolite formation at 10 uM after 60 mins by HPLC method; format: ADME; conditions: recombinant enzyme, 1 h
Cytochrome P450 2D6, sequence (P10635 whole entry): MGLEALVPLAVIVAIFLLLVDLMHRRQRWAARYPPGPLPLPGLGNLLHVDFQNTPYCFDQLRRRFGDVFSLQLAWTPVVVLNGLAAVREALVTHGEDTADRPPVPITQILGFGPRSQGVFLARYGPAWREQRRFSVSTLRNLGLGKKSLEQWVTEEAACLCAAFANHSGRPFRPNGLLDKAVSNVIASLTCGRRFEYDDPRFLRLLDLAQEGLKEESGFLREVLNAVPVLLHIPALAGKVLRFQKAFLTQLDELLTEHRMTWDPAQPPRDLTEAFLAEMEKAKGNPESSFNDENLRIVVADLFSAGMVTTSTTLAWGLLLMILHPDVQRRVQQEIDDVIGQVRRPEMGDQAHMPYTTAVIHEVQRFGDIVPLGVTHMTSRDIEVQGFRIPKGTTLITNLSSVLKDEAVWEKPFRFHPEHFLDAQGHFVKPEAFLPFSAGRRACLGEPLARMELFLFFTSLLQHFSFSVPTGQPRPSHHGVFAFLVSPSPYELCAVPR

Cytochrome P450 2E1 = Cytochrome P450 2E1 (Homo sapiens, UniProt P05181); assay: Drug metabolism assessed as human recombinant CYP2E1-mediated metabolite formation at 10 uM after 60 mins by HPLC method; format: ADME; conditions: recombinant enzyme, 1 h
Cytochrome P450 2E1, sequence (P05181 whole entry): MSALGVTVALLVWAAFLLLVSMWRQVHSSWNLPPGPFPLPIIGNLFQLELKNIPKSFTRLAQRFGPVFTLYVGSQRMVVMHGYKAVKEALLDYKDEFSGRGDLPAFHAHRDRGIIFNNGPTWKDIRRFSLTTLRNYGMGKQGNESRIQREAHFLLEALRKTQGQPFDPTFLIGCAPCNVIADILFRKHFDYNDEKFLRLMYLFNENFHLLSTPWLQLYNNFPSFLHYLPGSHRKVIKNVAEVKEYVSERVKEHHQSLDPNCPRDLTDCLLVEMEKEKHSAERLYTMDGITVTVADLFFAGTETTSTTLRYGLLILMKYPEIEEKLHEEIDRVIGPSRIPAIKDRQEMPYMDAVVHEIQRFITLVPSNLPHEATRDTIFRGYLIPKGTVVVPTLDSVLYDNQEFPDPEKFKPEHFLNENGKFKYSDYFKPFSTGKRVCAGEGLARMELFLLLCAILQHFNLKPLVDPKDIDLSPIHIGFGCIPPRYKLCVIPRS

Homo sapiens [9] = assay: Tmax in healthy obese adult male human assessed as total radioactivity at 25 mg, po administered as single dose; format: ADME, organism-based; conditions: in vivo
Homo sapiens [10] = assay: Cmax in healthy obese adult male human assessed as total radioactivity at 25 mg, po administered as single dose; format: ADME, organism-based; parameters: dose 25 mg, route oral; conditions: in vivo
Homo sapiens [11] = assay: AUC (0 to last) in healthy obese adult male human assessed as total radioactivity at 25 mg, po administered as single dose; format: ADME, organism-based, Plasma; conditions: in vivo
Serum [12] = assay: Total drug level in serum of healthy obese adult male human treated with [14C]CP-945,598 at 25 mg, po administered as single dose after 48 hrs by HPLC method; format: ADME, organism-based; conditions: in vivo
Cytochrome P450 3A4 = Cytochrome P450 3A4 (Homo sapiens, UniProt P08684); assay: Drug metabolism assessed as human recombinant CYP3A4-mediated metabolite formation after 60 mins by HPLC method; format: ADME; conditions: recombinant enzyme, 1 h
Cytochrome P450 3A4, sequence (P08684 whole entry): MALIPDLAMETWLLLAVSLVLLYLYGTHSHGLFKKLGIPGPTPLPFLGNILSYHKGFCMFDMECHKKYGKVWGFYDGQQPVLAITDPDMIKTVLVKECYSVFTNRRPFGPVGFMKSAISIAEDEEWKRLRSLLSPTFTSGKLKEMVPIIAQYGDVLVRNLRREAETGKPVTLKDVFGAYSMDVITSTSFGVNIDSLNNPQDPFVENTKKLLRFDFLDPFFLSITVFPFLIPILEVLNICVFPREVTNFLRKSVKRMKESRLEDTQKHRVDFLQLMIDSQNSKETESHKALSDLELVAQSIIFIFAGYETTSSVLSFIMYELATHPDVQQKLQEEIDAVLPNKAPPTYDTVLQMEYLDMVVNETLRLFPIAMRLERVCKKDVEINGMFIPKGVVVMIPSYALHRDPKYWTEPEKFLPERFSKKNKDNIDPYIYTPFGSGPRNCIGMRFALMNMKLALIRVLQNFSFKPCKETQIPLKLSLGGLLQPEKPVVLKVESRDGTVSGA

Serum [13] = assay: Drug level in serum of healthy obese adult male human treated with [14C]CP-945,598 at 25 mg, po administered as single dose after 4 hrs by HPLC method; format: ADME, organism-based; conditions: in vivo
Serum [14] = assay: Drug level in serum of healthy obese adult male human treated with [14C]CP-945,598 at 25 mg, po administered as single dose after 12 hrs by HPLC method; format: ADME, organism-based; conditions: in vivo
Serum [15] = assay: Drug level in serum of healthy obese adult male human treated with [14C]CP-945,598 at 25 mg, po administered as single dose after 24 hrs by HPLC method; format: ADME, organism-based; conditions: in vivo
Serum [16] = assay: Drug level in serum of healthy obese adult male human treated with [14C]CP-945,598 at 25 mg, po administered as single dose after 48 hrs by HPLC method; format: ADME, organism-based; conditions: in vivo
Serum [17] = assay: AUC in serum of healthy obese adult male human treated with [14C]CP-945,598 at 25 mg, po administered as single dose after 48 hrs by HPLC method; format: ADME, organism-based; parameters: time < 48 hr, dose 25 mg, route oral; conditions: in vivo
[18] = Drug excretion in feces of healthy obese adult male human treated with [14C]CP-945,598 at 25 mg, po administered as single dose after 0 to 384 hrs hrs by HPLC method; format: ADME, organism-based; conditions: in vivo
Homo sapiens [19] = assay: Total drug excretion in healthy obese adult male human treated with [14C]CP-945,598 at 25 mg, po administered as single dose after 0 to 384 hrs hrs by HPLC method; format: ADME, organism-based; conditions: in vivo
[20] = Drug excretion in urine of healthy obese adult male human treated with [14C]CP-945,598 at 25 mg, po administered as single dose after 0 to 384 hrs hrs by HPLC method; format: ADME, organism-based; conditions: in vivo
Homo sapiens [21] = assay: Tmax in healthy obese adult male human treated with [14C]CP-945,598 at 25 mg, po administered as single dose; format: ADME, organism-based; conditions: in vivo
Homo sapiens [22] = assay: Cmax in healthy obese adult male human treated with [14C]CP-945,598 at 25 mg, po administered as single dose; format: ADME, organism-based; parameters: dose 25 mg, route oral; conditions: in vivo
Homo sapiens [23] = assay: AUC (0 to last) in healthy obese adult male human treated with [14C]CP-945,598 at 25 mg, po administered as single dose; format: ADME, organism-based, Plasma; parameters: dose 25 mg, route oral, time 0 - last; conditions: in vivo
Homo sapiens [24] = assay: AUC (0 to infinity) in healthy obese adult male human treated with [14C]CP-945,598 at 25 mg, po administered as single dose; format: ADME, organism-based, Plasma; parameters: dose 25 mg, time infinity, route oral; conditions: in vivo
Homo sapiens [25] = assay: Terminal elimination half life in healthy obese adult male human treated with [14C]CP-945,598 at 25 mg, po administered as single dose; format: ADME, organism-based; conditions: in vivo

## CCNC1(C(N)=O)CCN(c2ncnc3c2n[14c](-c2ccccc2Cl)n3-c2ccc(Cl)cc2)CC1.Cl
Serum [1]
  Drug uptake: 12.1 ngequiv/g
Rattus norvegicus
  Drug recovery: 98%
Mus musculus
  Drug recovery: 98%
Canis familiaris
  Drug recovery: 99%
Serum [2]
  Drug uptake: 11.5 ngequiv/g
Serum [3]
  Drug uptake: 8 ngequiv/g
Homo sapiens [4]
  AUC: 9434 ng/h/mL
Homo sapiens [5]
  beta t1/2: 190 h
Serum [6]
  Drug uptake: 6.4 ngequiv/g
Serum [7]
  Drug uptake: 2.7 ngequiv/g
Serum [8]
  AUC: 297 ngequiv.hr/g
Cytochrome P450 1A1
  Drug metabolism: metabolite_not_detected
Cytochrome P450 1A2
  Drug metabolism: metabolite_not_detected
Cytochrome P450 2C8
  Drug metabolism: metabolite_not_detected
Cytochrome P450 2C9
  Drug metabolism: metabolite_not_detected
Cytochrome P450 2C19
  Drug metabolism: metabolite_not_detected
Cytochrome P450 2D6
  Drug metabolism: metabolite_not_detected
Cytochrome P450 2E1
  Drug metabolism: metabolite_not_detected
Homo sapiens [9]
  Tmax: 6 h
Homo sapiens [10]
  Cmax: 74 ngequiv/g
Homo sapiens [11]
  AUClast: 8298 ngequiv.hr/g

## O=C1CCN(c2ncnc3c2nc(-c2ccccc2Cl)n3-c2ccc(Cl)cc2)CC1
Serum [12]
  Drug uptake: 12.6 ngequiv/g
Cytochrome P450 3A4
  Drug metabolism: 26.9%
Serum [13]
  Drug uptake: 4.5 ngequiv/g
Serum [14]
  Drug uptake: 3.6 ngequiv/g
Serum [15]
  Drug uptake: 7.2 ngequiv/g
Serum [16]
  Drug uptake: 9.7 ngequiv/g
Serum [17]
  AUC: 309 ngequiv.hr/g

## NC(=O)C1(NC2O[C@H](CO)[C@@H](O)[C@H]2O)CCN(c2ncnc3c2nc(-c2ccccc2Cl)n3-c2ccc(Cl)cc2)CC1 (stereo not given in full)
[18]
  Drug excretion: 6.3%
Homo sapiens [19]
  Drug excretion: 6.3%

## NC(=O)C1(N)CCN(c2ncnc3c2nc(-c2ccccc2Cl)n3-c2ccc(Cl)cc2)CC1
Serum [12]
  Drug uptake: 57.3 ngequiv/g
[20]
  Drug excretion: 2.3%
[18]
  Drug excretion: 4.5%
Homo sapiens [19]
  Drug excretion: 6.8%
Cytochrome P450 3A4
  Drug metabolism: 48.1%
Homo sapiens [21]
  Tmax: 6.8 h
Homo sapiens [22]
  Cmax: 42 ng/mL
Homo sapiens [23]
  AUClast: 3730 ng·h/mL
Homo sapiens [24]
  AUC: 3970 ng·h/mL
Homo sapiens [25]
  beta t1/2: 139 h
Serum [13]
  Drug uptake: 28.4 ngequiv/g
Serum [14]
  Drug uptake: 38.1 ngequiv/g
Serum [15]
  Drug uptake: 31.8 ngequiv/g
Serum [16]
  Drug uptake: 23.1 ngequiv/g
Serum [17]
  AUC: 1401 ngequiv.hr/g
